Reference: US20260248134A1, “A METHOD FOR CONTROLLING WEEDS” (UPL MAURITIUS LIMITED, priority 2023, published 2026)

How the values were obtained:
Type in all cases: in vivo
Megathyrsus maximus = assay: Control of Megathyrsus maximus weed at different application rates (Example 5)
Description: The effect of application of asulam was observed on the growth of Megathyrsus maximus weed at 14 and 21 DAA (days after application) at different application rates. The percentage (%) control of weeds has been evaluated and disclosed in Table 5.

Avena strigose [1] = assay: Control of Avena strigose weed by asulam alone, with adjuvant, with additional herbicide (Example 3); conditions: 4500 g a.i/ha
Method: (§1) The effect of application of asulam alone, asulam along with an adjuvant, and asulam along with an additional herbicide was observed on the growth of Avena strigose weed at 42, 49, 56 and 63 DAA (days after application). The percentage (%) control of weeds was evaluated to assess the efficacy of the compositions and the same has been disclosed in Table 3. Untreated control was also compared, wherein no herbicidal composition was applied and thus, no control of weeds was observed.

Ipomoea hederifolia = assay: Control of Ipomoea hederifolia weed by asulam alone, with adjuvant, with additional herbicide (Example 1); conditions: 4500 g a.i/ha
Method: as §1, with “Ipomoea hederifolia” for “Avena strigose”, “1.” for “3.”

Avena strigose [2] = assay: Control of Avena strigose weed at different application rates (Example 8)
Description: The effect of application of asulam was observed on the growth of Avena strigose weed at 28, 35 and 49 DAA (days after application) at different application rates. The percentage (%) control of weeds has been evaluated and disclosed in Table 8.

Digitaria nuda = assay: Control of weeds at post-emergence stage (Example 10)
Description: (§2) The effect of application of asulam was observed on the growth of weeds at post-emergence stage for different application rates. The percentage (%) control of weeds has been evaluated and disclosed in Table 10.

Cynodon dactylon = assay: as above
Description: as §2

Bidens pilosa = assay: as above
Description: as §2

Brachiaria plantaginea = assay: as above
Description: as §2

## COC(=O)NS(=O)(=O)c1ccc(N)cc1 [Asulam, asulam]
Megathyrsus maximus; 3200 g a.i/ha, 21 DAA
  Control of Megathyrsus maximus: 85%
Megathyrsus maximus; 3600 g a.i/ha, 14 DAA
  Control of Megathyrsus maximus: 80%
Megathyrsus maximus; 3600 g a.i/ha, 21 DAA
  Control of Megathyrsus maximus: 86%
Megathyrsus maximus; 4000 g a.i/ha, 14 DAA
  Control of Megathyrsus maximus: 76%
Megathyrsus maximus; 4000 g a.i/ha, 21 DAA
  Control of Megathyrsus maximus: 85%
Avena strigose [1]; 42 DAA
  Control of Avena strigose: 47.5%
Avena strigose [1]; 49 DAA
  Control of Avena strigose: 43.8%
Avena strigose [1]; 56 DAA
  Control of Avena strigose: 37.5%
Ipomoea hederifolia; 42 DAA
  Control of Ipomoea hederifolia: 13.8%
Ipomoea hederifolia; 49 DAA
  Control of Ipomoea hederifolia: 11.3%
Ipomoea hederifolia; 56 DAA
  Control of Ipomoea hederifolia: 8.8%
Avena strigose [2]; 1200 g a.i/ha, 28 DAA
  Control of Avena strigose: 81%
Avena strigose [2]; 1200 g a.i/ha, 35 DAA
  Control of Avena strigose: 84%
Avena strigose [2]; 1200 g a.i/ha, 49 DAA
  Control of Avena strigose: 81%
Avena strigose [2]; 1500 g a.i/ha, 28 DAA
  Control of Avena strigose: 86%
Avena strigose [2]; 1500 g a.i/ha, 35 DAA
  Control of Avena strigose: 89%
Avena strigose [2]; 1500 g a.i/ha, 49 DAA
  Control of Avena strigose: 89%
Avena strigose [2]; 1800 g a.i/ha, 28 DAA
  Control of Avena strigose: 96%
Avena strigose [2]; 1800 g a.i/ha, 35 DAA
  Control of Avena strigose: 99%
Avena strigose [2]; 1800 g a.i/ha, 49 DAA
  Control of Avena strigose: 99%
Avena strigose [2]; 2250 g a.i/ha, 28 DAA
  Control of Avena strigose: 95%
Avena strigose [2]; 2250 g a.i/ha, 35 DAA
  Control of Avena strigose: 100%
Avena strigose [2]; 2250 g a.i/ha, 49 DAA
  Control of Avena strigose: 100%
Avena strigose [2]; 2500 g a.i/ha, 28 DAA
  Control of Avena strigose: 98%
Avena strigose [2]; 2500 g a.i/ha, 35 DAA
  Control of Avena strigose: 100%
Avena strigose [2]; 2500 g a.i/ha, 49 DAA
  Control of Avena strigose: 100%
Digitaria nuda; 2800 g a.i/ha, 28 DAA
  percentage (%) control of weeds: 99%
Digitaria nuda; 2800 g a.i/ha, 35 DAA
  percentage (%) control of weeds: 99%
Digitaria nuda; 2800 g a.i/ha, 49 DAA
  percentage (%) control of weeds: 99%
Digitaria nuda; 3200 g a.i/ha, 28 DAA
  percentage (%) control of weeds: 96%
Digitaria nuda; 3200 g a.i/ha, 35 DAA
  percentage (%) control of weeds: 100%
Digitaria nuda; 3200 g a.i/ha, 49 DAA
  percentage (%) control of weeds: 100%
Digitaria nuda; 4000 g a.i/ha, 28 DAA
  percentage (%) control of weeds: 93%
Digitaria nuda; 4000 g a.i/ha, 35 DAA
  percentage (%) control of weeds: 94%
Digitaria nuda; 4000 g a.i/ha, 49 DAA
  percentage (%) control of weeds: 94%
Cynodon dactylon; 2400 g a.i/ha, 28 DAA
  percentage (%) control of weeds: 94%
Cynodon dactylon; 2400 g a.i/ha, 35 DAA
  percentage (%) control of weeds: 97%
Cynodon dactylon; 2400 g a.i/ha, 49 DAA
  percentage (%) control of weeds: 99%
Cynodon dactylon; 2800 g a.i/ha, 28 DAA
  percentage (%) control of weeds: 96%
Cynodon dactylon; 2800 g a.i/ha, 35 DAA
  percentage (%) control of weeds: 97%
Cynodon dactylon; 2800 g a.i/ha, 49 DAA
  percentage (%) control of weeds: 100%
Cynodon dactylon; 3200 g a.i/ha, 28 DAA
  percentage (%) control of weeds: 94%
Cynodon dactylon; 3200 g a.i/ha, 35 DAA
  percentage (%) control of weeds: 94%
Cynodon dactylon; 3200 g a.i/ha, 49 DAA
  percentage (%) control of weeds: 96%
Cynodon dactylon; 4000 g a.i/ha, 28 DAA
  percentage (%) control of weeds: 95%
Cynodon dactylon; 4000 g a.i/ha, 35 DAA
  percentage (%) control of weeds: 96%
Cynodon dactylon; 4000 g a.i/ha, 49 DAA
  percentage (%) control of weeds: 100%
Bidens pilosa; 1000 g a.i/ha, 28 DAA
  percentage (%) control of weeds: 100%
Bidens pilosa; 1000 g a.i/ha, 35 DAA
  percentage (%) control of weeds: 100%
Bidens pilosa; 1000 g a.i/ha, 49 DAA
  percentage (%) control of weeds: 100%
Bidens pilosa; 1500 g a.i/ha, 28 DAA
  percentage (%) control of weeds: 100%
Bidens pilosa; 1500 g a.i/ha, 35 DAA
  percentage (%) control of weeds: 100%
Bidens pilosa; 1500 g a.i/ha, 49 DAA
  percentage (%) control of weeds: 100%
Bidens pilosa; 1800 g a.i/ha, 28 DAA
  percentage (%) control of weeds: 94%
Bidens pilosa; 1800 g a.i/ha, 35 DAA
  percentage (%) control of weeds: 97%
Bidens pilosa; 1800 g a.i/ha, 49 DAA
  percentage (%) control of weeds: 97%
Bidens pilosa; 2250 g a.i/ha, 28 DAA
  percentage (%) control of weeds: 93%
Bidens pilosa; 2250 g a.i/ha, 35 DAA
  percentage (%) control of weeds: 95%
Bidens pilosa; 2250 g a.i/ha, 49 DAA
  percentage (%) control of weeds: 94%
Brachiaria plantaginea; 1800 g a.i/ha, 28 DAA
  percentage (%) control of weeds: 92%
Brachiaria plantaginea; 1800 g a.i/ha, 35 DAA
  percentage (%) control of weeds: 92%
Brachiaria plantaginea; 1800 g a.i/ha, 49 DAA
  percentage (%) control of weeds: 83%
Brachiaria plantaginea; 2250 g a.i/ha, 28 DAA
  percentage (%) control of weeds: 95%
Brachiaria plantaginea; 2250 g a.i/ha, 35 DAA
  percentage (%) control of weeds: 88%
Brachiaria plantaginea; 2250 g a.i/ha, 49 DAA
  percentage (%) control of weeds: 73%
Brachiaria plantaginea; 2500 g a.i/ha, 28 DAA
  percentage (%) control of weeds: 93%
Brachiaria plantaginea; 2500 g a.i/ha, 35 DAA
  percentage (%) control of weeds: 92%
Brachiaria plantaginea; 2500 g a.i/ha, 49 DAA
  percentage (%) control of weeds: 100%
